Assay results from US20140079741A1, “INHIBITION AND TREATMENT OF BIOFILMS” (priority 2011, published 2014).

Assays:
[1] = system: biofilms of C. albicans CAF2-1; assay: MIC50 against biofilms (XTT reduction assay); type: cell-based, Candida albicans; conditions: Candida albicans, biofilms, diclofenac alone
Experimental: Using the same setup as above, WT biofilms grown in the presence or absence of diclofenac (0.5-3 mM or 148-888 μg/mL) were incubated with various concentrations of Caspofungin (0-150 μM) for 24 h, both in the presence or absence of diclofenac. After washing, the remaining living cells within the biofilm was determined by CellTiter-Blue quantification. The MIC50 of caspofungin, diclofenac and the combination of both drugs against pretreated or mature C. albicans biofilms was quantified by XTT reduction assay (Ramage et al.).
(§1) Similar results were obtained by determination of the MIC50 values. The susceptibility testing and determination of minimal inhibitory concentrations (MIC) of diclofenac and caspofungin, and combinations thereof that inhibit fungal growth by 50% (MIC50) were performed according the NCCLS M27-A3 protocol (2008).

[2] = system: planktonic cultures of C. albicans CAF2-1; assay: MIC50 against planktonic cultures (NCCLS M27-A3); type: cell-based, Candida albicans; conditions: diclofenac up to 2 mM
Experimental: as §1

[3] = system: C. albicans biofilm cells; assay: Membrane permeability by propidium iodide fluorescence; type: cell-based, Candida albicans; conditions: 2 mM diclofenac during adhesion and growth phase, 24 h, RPMI 1640
Experimental: This was further investigated by evaluating the membrane-disruptive activity of diclofenac on in vitro grown C. albicans biofilm cells by measuring the fluorescence enhancement of propidium iodide (PI). To this end, C. albicans biofilms were grown in RPMI 1640 (pH 7.0) in the presence or absence of diclofenac (ranging from 0.25-4 mM) for 24 h. Next, the biofilm cells were incubated with 3% PI for 20 minutes at room temperature in the dark. Membrane permeability was quantified by measurement of PI fluorescence (excitation at 535 nm, emission at 617 nm).

[4] = system: C. albicans WT biofilms; assay: Biofilm survival by CFU determination (plating on YPD); type: cell-based, Candida albicans; conditions: 500 μg/ml diclofenac alone
Experimental: Using the same setup as in Example 2, WT biofilms grown in the presence or absence of diclofenac (500 μg/ml) or Δefg1 biofilms were incubated with various concentrations of Amphotericin B (AmB) (2.5-10 μg/ml) for 24 h, both in the presence or absence of diclofenac. After washing, the remaining living cells within the biofilm were determined by plating on YPD and determination of colony forming units (CFUs).

[5] = system: C. albicans cells; assay: Morphology of planktonic and biofilm cells (fluorescence microscopy); type: cell-based, Candida albicans; conditions: pretreated with diclofenac alone, 0.5-3 mM
Experimental: However, the morphology of biofilm cells pretreated with diclofenac alone (ranging from 0.5-3 mM), was not altered.

[6] = system: C. albicans biofilms of wild type CAF2; assay: Biofilm activity assay, crystal violet quantification (BEC50); type: cell-based, Candida albicans; conditions: 500 μg/ml diclofenac in the absence of miconazole
Experimental: Biofilm activity assay. The activity of miconazole and fluconazole against 16 h-old C. albicans biofilms (10^7 cells/well) was assessed using the crystal violet quantification method. The biofilm-eradicating capacity of a compound was determined as the minimal concentration resulting in 50% eradication of the biofilm (BEC50).
Miconazole sensitivity was analyzed of biofilms of C. albicans homozygous null mutants affected in genes involved in the cyclic AMP signaling pathway, namely Δcdc35, Δras1, Δpde1, Δpde2 and Δefg1. To this end, the inventors incubated 16 h-old C. albicans biofilms with various concentrations of miconazole for 24 h and determined the remaining biomass using the crystal violet quantification method.
To this end, cultures of the WT CAF2-1 were grown overnight (2×10^8 cells/ml) in YPD (1% yeast extract, 2% peptone, 2% glucose) and washed 3 times in PBS (pH 7.4). After dilution (OD600=0.5) in SC (1% CSM, complete amino acid supplement mixture, 1% YNB, yeast nitrogen base; 2% glucose), the cultures were resuspended (100 μl/well) in a 96well microtiter plate. After 1 h of adhesion, the adherent WT cells were incubated with or without 500 μg/ml diclofenac and allowed biofilm formation for 16 h. Next, the resulting biofilms were washed with PBS and treated with various concentrations of miconazole for 24 h in the absence or presence of diclofenac. After washing, the remaining biomass was determined using the crystal violet quantification method.
The biofilm-eradicating capacity of a compound was determined as the minimal concentration resulting in 50% eradication of the biofilm (BEC50).

[7] = system: C. albicans CAF2 biofilms on implanted catheter fragments; assay: Rat subcutaneous catheter infection model (in vivo biofilm susceptibility); parameters: species or system Candida albicans; conditions: rats
Experimental: A rat subcutaneous catheter infection model was used for in vivo biofilm susceptibility studies, in which 6 rats were treated with sterile saline (control, 40 catheters), 6 rats with diclofenac (48 catheters), 5 rats with caspofungin (40 catheters) and 6 rats with a combination of diclofenac and caspofungin (45 catheters).
Diclofenac and caspofungin solutions for intravenous injection were prepared in sterile physiological solution. The administration of diclofenac (3 mg/kg) started immediately after the catheter implant and continued daily up to 9 days. The treatment with caspofungin (3 mg/kg) was initiated after 48 h of in vivo biofilm development and maintained by daily injections for 7 days. Sterile saline was administered to the control group. Further analysis and quantification of the number of cells per individual biofilm was performed as previously described. Statistical analysis was performed using unpaired t-test; differences were considered significant if p<0.05. Data are the means and SEM of 2 independent experiments. Six independent catheters retrieved from each test group were used for scanning electron microscopy (SEM) analyses. Prior to the SEM analysis, each catheter fragment was cut longitudinally through the lumen and subsequently prepared for microscopy as previously described.

[8] = system: C. albicans biofilms grown on catheters; assay: In vitro biofilm drug susceptibility on polyurethane catheter pieces (CFU); type: cell-based, Candida albicans; conditions: 2 mM diclofenac pretreatment alone
Experimental: In an alternative setup, in vitro biofilm drug susceptibility assays were performed using serum-coated 1 cm polyurethane catheter pieces (Arrow International Reading) as described previously. Biofilms were grown in RPMI 1640 (pH 7.0) and Candida cells were allowed to adhere to the substrate for 90 min.
Diclofenac (2 mM) was administered during the period of adhesion of C. albicans cells on the catheters and throughout the period of biofilm formation. Catheter fragments containing diclofenac-pretreated or untreated mature biofilms were washed and subsequently incubated with caspofungin (125 μM) or water in the presence or absence of diclofenac (2 mM) for 24 h, respectively. Biofilms were washed and quantified by determination of colony forming units. Untreated biofilms were considered as controls. Statistical analysis was performed using unpaired t-test; differences were considered significant if p<0.05. Data are the mean and SEM of five independent experiments using at least two catheters per test group.
Similar results were obtained when assessing the antibiofilm effect of caspofungin against mature biofilms, which were formed on diclofenac-soaked catheter fragments versus those formed on unsoaked catheter fragments.

## O=C(O)Cc1ccccc1Nc1c(Cl)cccc1Cl [diclofenac]
[1]
  MIC50: 2000 µM
[2]
  inhibitory activity against planktonic cells: no inhibitory activity
[3]
  membrane permeability compared to untreated cells: significantly increased membrane permeability
[4]
  less biofilm cells compared to untreated WT biofilms: about 50%
[5]
  morphology of biofilm cells: not altered
[6]
  remaining C. albicans biofilms compared to untreated WT biofilms: about 50%
[7]; diclofenac alone
  biofilm structure by scanning electron microscopy: no biofilm-inhibitory effect
[7]; diclofenac alone 3 mg/kg intravenous daily, 48 h pretreatment and up to 7 days further
  number of biofilm cells on catheters compared to control treatment: no significant difference
[8]
  number of biofilm cells compared to untreated catheters: no significant difference
